Each structure is given as a SMILES string.

The test system of data set [1] is homogenate of human jejunal mucous. Put plainly: in vitro. In kind it is in vitro ADME. To be noted: 0 min. The procedure:
(§1) The preparation is identical to that given in Example 2, paragraph 2.1. The jejunal mucous (about 40 mg) is homogenized in the presence of a 0.9% aqueous solution of NaCl (weight/volume) using a "Polytron" type homogenizer. The homogenate is then brought to 12 ml (with the 0.9% solution of NaCl). The reaction mixture containing 2 ml of fructosyl oligosaccharide solution and 2 ml of homogenate is incubated for 24 hours at 37° C. under magnetic agitation. Samples are taken at regular intervals and the intestinal enzymes are thermally inactivated. A parallel test is carried out on a control solution containing saccharose. […] [formula]

The nature of data set [2]: in vitro. Conditions: human, jejunal mucous homogenate. In kind it is in vitro ADME. The procedure: as §1
In data set [3] the test system is homogenate of the jejunum of a rat. Put plainly: in vitro. It is filed as in vitro ADME. To be noted: 0 min, pH 6. As for the experimental part: (§2) Then the products are dissolved in a 0.05M sodium phosphate (buffer pH 6.0), so as to have a molar concentration of […]. […] The reaction mixture containing 2 ml of fructosyl oligosaccharide solution and 2 ml of homogenate is incubated for 24 hours at 37° C., under magnetic agitation. Samples are taken at regular intervals, and the intestinal enzymes are thermally inactivated. A parallel test is carried out on a control solution containing saccharose.

A short description of data set [4]: in vitro. It is filed as in vitro ADME. To be noted: rat, jejunum homogenate, pH 6. As for the experimental part:
as §2

Data set [5] has as its system homogenate of the jejunum of a rat. Put plainly: in vitro. To be noted: 0 min, pH 6. As for the experimental part:
(§3) 5 cm of jejunum is removed from a male Sprague Dawley rat (previously put on a diet for 25 hours) and rinsed with a solution of physiological serum.
(§4) The jejunum (weighing about 150 mg) is pulverized in the presence of 0.9% NaCl (w/v) using a "Polytron" type homogenizer then the pulverized product is brought to 10 ml (with 0.9% NaCl solution).
(§5) The reaction mixture containing 2 ml of fructosyl oligosaccharide solution and 2 ml of homogenate is incubated for 24 hours at 37° C., under magnetic agitation.
(§6) In a second series of tests, the evolution of the composition of the fructosyl oligosaccharide is followed over a period of time by inverse plane HPLC (Nucleosil C18 column--eluent: water), the control sugar still being saccharose.

A short description of data set [6]: in vitro. Conditions: rat, jejunum homogenate, pH 6. As for the experimental part:
as §3, §4, §5, §6

Data set [7] concerns alpha amylase from the pancreas of a pig. Put plainly: Hydrolysis test with alpha amylase of the pancreas of a pig. To be noted: substrate 3 g/liter, pH 7.0, 19 units enzyme, 2 hours at 37° C. The procedure:
The product is then dissolved is a 0.1M sodium phosphate buffer, (pH 7.0), so as to obtain a final concentration of 3 g/liter of fructosyl oligosaccharide. A mixture containing 2 ml of fructosyl oligosaccharide solution (prepared as above in 1.1) and 19 units of alpha amylase from the pancreas of a pig (SIGMA Ref […]) is incubated for 2 hours at 37° C. The reaction is stopped by heating. The glucose which has appeared is measured by the enzymatic method with glucose oxidase/peroxidase (Boehringer test Ref. 124036). A control test is carried out with maltodextrins, type glucidex 21 (Societe Roquette, France). The results are given in micromoles of glucose formed per enzyme unit and per hour.

Data set [8] concerns alpha amylase of human saliva. Put plainly: Hydrolysis test with alpha amylase of human saliva. In kind it is in vitro ADME. To be noted: substrate 3 g/liter, pH 7.0, 17.8 units enzyme, 2 hours at 37° C. As for the experimental part: After 2 hours, the reaction is stopped by heating.

With `OC[C@H]1O[C@@](CO)(O[C@H]2O[C@H](CO)[C@@H](O)[C@H](O)[C@H]2O)[C@@H](O)[C@@H]1O` [Saccharose, saccharose, reference compound], the “DH % (degree of hydrolysis)” value in data set [1] came to 0%. Also, in the data set “in vitro [2]”, the metabolised at 10 h was found to be 57.1% and the metabolised at 24 h is 88%. In addition, in data set [3], the “DH % (degree of hydrolysis)” value is 0%. In the data set “in vitro [4]”, this molecule came in with a metabolised at 8.5 h of 57.6%, a metabolised at 17.5 h of 66.7% and a metabolised at 24 h of 92.7%. The “Composition in carbohydrate %: Saccharose” value in data set [5] is listed as 100%. This molecule also gave an amount remaining at 24 h in the data set “in vitro [6]” of 4%.

Regarding `OC[C@H]1O[C@@](CO)(O[C@H]2O[C@H](CO)[C@@H](O[C@@H]3O[C@H](CO)[C@@H](O)[C@H](O)[C@H]3O)[C@H](O)[C@H]2O)[C@@H](O)[C@@H]1O` [Cellobiofructose, cellobiofructose], the “Activity of the alpha amylase from the pancreas of a pig” value in data set [7] is recorded as 0 micromoles of glucose formed p. Further, the “Activity of the alpha amylase of human saliva” value in data set [8] is reported as 0 micromoles of glucose formed p. For the same molecule, the “DH % (degree of hydrolysis)” value in data set [1] came out at 0%. In “in vitro [2]”, this molecule registered a metabolised at 10 h of 0% and a metabolised at 24 h of 0%. The “DH % (degree of hydrolysis)” value in data set [3] is 0%. In “in vitro [4]”, this molecule returned a metabolised at 8.5 h of 0%, a metabolised at 17.5 h of 3.7% and a metabolised at 24 h of 5.4%. Besides, in data set [5], the “Composition in carbohydrate %: Cellobiofructose” value turned out to be 100%. In the data set “in vitro [6]”, this molecule yielded a fraction remaining at 8.5 h of 97% and a share remaining at 24 h of 93.6%.

On to `OC[C@H]1O[C@@](CO)(O[C@H]2O[C@H](CO[C@@H]3O[C@H](CO)[C@@H](O)[C@H](O)[C@H]3O)[C@@H](O)[C@H](O)[C@H]2O)[C@@H](O)[C@@H]1O` [Gentiobiofructose, gentiobiofructose], for which, in data set [7], the “Activity of the alpha amylase from the pancreas of a pig” value is 0 micromoles of glucose formed p. Further, in data set [8], the “Activity of the alpha amylase of human saliva” value is listed as 0 micromoles of glucose formed p. Besides, in data set [1], the “DH % (degree of hydrolysis)” value was 0%. In the data set “in vitro [2]”, this molecule had a metabolised at 10 h of 0% and a metabolised at 24 h of 0%. Also, in data set [3], the “DH % (degree of hydrolysis)” value turned out to be 0%. In the data set “in vitro [4]”, this molecule had a metabolised at 8.5 h of 0%, a metabolised at 17.5 h of 0.4% and a metabolised at 24 h of 0.4%. Besides, in data set [5], the “Composition in carbohydrate %: Gentiobiofructose” value stood at 100%. In “in vitro [6]”, the share remaining at 8.5 h came to 100% and the amount remaining at 24 h was 99.6%.

For orientation: share remaining means the share of the starting amount still present when the sample was taken. Higher therefore signals greater stability.

Values taken from patent publication US4978751A, “Low-calorie sweeteners of fructosyl oligosaccharides and the food or dietetic products or drinks containing them” (Roussel-Ulcaf, priority 1988, dated 1990).
